The results in this text go back to patent US12043632B2, “6-heteroaryloxy benzimidazoles and azabenzimidazoles as JAK2 inhibitors” (Ajax Therapeutics, Inc., priority 2020, dated 2024).

The target of this assay is T1, JAK2 (JH1domain-catalytic, Y1007F,Y1008F) kinase (Homo sapiens, UniProt O60674, Y1007F/Y1008F).
T1 construct: JAK2 (JH1domain-catalytic, Y1007F,Y1008F) kinase was expressed as N-terminal fusion; made in house; host or cells: transiently transfected HEK293 cells
The assay is described as follows: JAK2 JH1 Domain Binding Assay. The note with it: qPCR readout. (In qPCR the cycle at which signal appears reflects the starting amount.)

pKd: −log10 of the molar value.

T1 sequence (O60674 849-1124 Y1007F/Y1008F limits assumed): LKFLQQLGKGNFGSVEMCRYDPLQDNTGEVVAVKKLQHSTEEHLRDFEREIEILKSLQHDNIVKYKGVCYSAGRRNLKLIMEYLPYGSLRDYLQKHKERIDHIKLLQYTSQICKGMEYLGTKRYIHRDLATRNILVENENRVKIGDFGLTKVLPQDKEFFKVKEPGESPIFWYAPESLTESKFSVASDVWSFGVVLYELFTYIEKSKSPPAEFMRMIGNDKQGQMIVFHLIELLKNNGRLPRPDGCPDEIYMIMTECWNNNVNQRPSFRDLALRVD

Compound `CN(C)c1cc(Nc2nc3ncc(Oc4cnn5ccncc45)c(Cl)c3n2C)cc(C(F)(F)F)n1` [Example I-274, N^4-(7-chloro-1-methyl-6-(pyrazolo[1,5-a]pyrazin-3-yloxy)-1H-imidazo[4,5-b]pyridin-2-yl)-N^2,N^2-dimethyl-6-(trifluoromethyl)pyridine-2,4-diamine] showed a pKd of 7.30 to 8.00. The figure for `Cn1c(Nc2cc(C(C)(C)C)n([C@H]3CCOC3)n2)nc2ncc(Oc3cnc4[nH]cc(C#N)c4c3)cc21` [Example I-10, (S)-5-((2-((5-(tert-butyl)-1-(tetrahydrofuran-3-yl)-1H-pyrazol-3-yl)amino)-1-methyl-1H-imidazo[4,5-b]pyridin-6-yl)oxy)-1H-pyrrolo[2,3-b]pyridine-3-carbonitrile] is 5.30 to 6.00; for `CNc1nccn2ncc(Oc3cnc4nc(Nc5cc(C(F)(F)F)cn(C(C)C)c5=O)n(C)c4c3Cl)c12` [Example I-202, 3-((7-chloro-1-methyl-6-((4-(methylamino)pyrazolo[1,5-a]pyrazin-3-yl)oxy)-1H-imidazo[4,5-b]pyridin-2-yl)amino)-1-isopropyl-5-(trifluoromethyl)pyridin-2(1H)-one] it is above 8.00.

Compound `Cn1cc(C(F)(F)F)cc(Nc2nc3ncc(Oc4cnc5[nH]cc(F)c5c4)c(Cl)c3n2C)c1=O` [Example I-288, 3-((7-chloro-6-((3-fluoro-1H-pyrrolo[2,3-b]pyridin-5-yl)oxy)-1-methyl-1H-imidazo[4,5-b]pyridin-2-yl)amino)-1-methyl-5-(trifluoromethyl)pyridin-2(1H)-one] showed a pKd of 7.30 to 8.00. For the compound `Cn1cc(C(F)(F)F)cc(Nc2nc3ncc(Oc4cnn5cc(OCCN6CCOCC6)ncc45)c(C#N)c3n2C)c1=O` [Example I-377, 1-methyl-2-((1-methyl-2-oxo-5-(trifluoromethyl)-1,2-dihydropyridin-3-yl)amino)-6-((6-(2-morpholinoethoxy)pyrazolo[1,5-a]pyrazin-3-yl)oxy)-1H-imidazo[4,5-b]pyridine-7-carbonitrile], the pKd is above 8.00. For the compound `CNc1nccn2ncc(Oc3cnc4nc(Nc5cc6c(c(C(F)(F)F)c5)C(C)(C)N(C)C6=O)n(C)c4c3Cl)c12` [Example I-234, 6-((7-chloro-1-methyl-6-((4-(methylamino)pyrazolo[1,5-a]pyrazin-3-yl)oxy)-1H-imidazo[4,5-b]pyridin-2-yl)amino)-2,3,3-trimethyl-4-(trifluoromethyl)isoindolin-1-one], the pKd was 7.30 to 8.00.

The compound `CNc1nccn2ncc(Oc3cnc4nc(Nc5cc(OC[C@H]6CCCN6C)cc(C(F)(F)F)c5)n(C)c4c3Cl)c12` [Example I-242, (R)-7-chloro-1-methyl-6-((4-(methylamino)pyrazolo[1,5-a]pyrazin-3-yl)oxy)-N-(3-((1-methylpyrrolidin-2-yl)methoxy)-5-(trifluoromethyl)phenyl)-1H-imidazo[4,5-b]pyridin-2-amine] showed a pKd above 8.00.

`CNc1nccn2ncc(Oc3cnc4nc(Nc5cc(C(F)(F)F)cn(C)c5=O)n(C)c4c3C#N)c12` [Example I-193, 1-methyl-2-((1-methyl-2-oxo-5-(trifluoromethyl)-1,2-dihydropyridin-3-yl)amino)-6-((4-(methylamino)pyrazolo[1,5-a]pyrazin-3-yl)oxy)-1H-imidazo[4,5-b]pyridine-7-carbonitrile]: the pKd is above 8.00. In turn, `CNc1nccn2ncc(Oc3cnc4nc(Nc5cc(C(F)(F)F)cn([C@@H]6CCOC6)c5=O)n(C)c4c3Cl)c12` (single isomer, unassigned) [Example I-262-b] gave a pKd above 8.00. The figure for `COCc1n[nH]c2ncc(Oc3cnc4nc(Nc5cc(C(F)(F)F)cn(C)c5=O)n(C)c4c3C#N)cc12` [Example I-319, 6-((3-(methoxymethyl)-1H-pyrazolo[3,4-b]pyridin-5-yl)oxy)-1-methyl-2-((1-methyl-2-oxo-5-(trifluoromethyl)-1,2-dihydropyridin-3-yl)amino)-1H-imidazo[4,5-b]pyridine-7-carbonitrile] is above 8.00; for `Cn1c(Nc2cc(C(C)(C)C)n([C@H]3CCC[C@H]3O)n2)nc2ncc(Oc3cnn4ccncc34)c(C(F)F)c21` (single isomer, unassigned) [Example I-71-a] it is 6.00 to 7.30.

With `CNc1cn2ncc(Oc3cnc4nc(Nc5cc(C6CC6)cn(C)c5=O)n(C)c4c3Cl)c2cn1` [Example I-312, 3-((7-chloro-1-methyl-6-((6-(methylamino)pyrazolo[1,5-a]pyrazin-3-yl)oxy)-1H-imidazo[4,5-b]pyridin-2-yl)amino)-5-cyclopropyl-1-methylpyridin-2(1H)-one], the pKd is above 8.00.

Compound `CN(C)[C@@H]1CCN(Cc2cc(Nc3nc4ncc(Oc5cnn6ccncc56)c(Cl)c4n3C)cc(C(F)(F)F)c2)C1` [Example I-271, (R)-7-chloro-N-(3-((3-(dimethylamino)pyrrolidin-1-yl)methyl)-5-(trifluoromethyl)phenyl)-1-methyl-6-(pyrazolo[1,5-a]pyrazin-3-yloxy)-1H-imidazo[4,5-b]pyridin-2-amine] gave a pKd above 8.00.

`Cn1c(Nc2cc(C3CC3)nn([C@H]3CCOC3)c2=O)nc2ncc(Oc3cnn4ccccc34)c(Cl)c21` [Example I-143, (S)-4-((7-chloro-1-methyl-6-(pyrazolo[1,5-a]pyridin-3-yloxy)-1H-imidazo[4,5-b]pyridin-2-yl)amino)-6-cyclopropyl-2-(tetrahydrofuran-3-yl)pyridazin-3(2H)-one] showed a pKd above 8.00. Compound `COc1c(Oc2cnn3ccncc23)cnc2nc(Nc3cc(C(F)(F)F)cn([C@H]4CC[C@@H]4O)c3=O)n(C)c12` (single isomer, unassigned) [Example I-113-a] gave a pKd of 7.30 to 8.00. As for `Cn1c(Nc2cc(C(C)(C)C)n(CC#N)n2)nc2ncc(Oc3cnn4ccncc34)c(Cl)c21` [Example I-54, 2-(5-(tert-butyl)-3-((7-chloro-1-methyl-6-(pyrazolo[1,5-a]pyrazin-3-yloxy)-1H-imidazo[4,5-b]pyridin-2-yl)amino)-1H-pyrazol-1-yl)acetonitrile], the figure is 7.30 to 8.00; as for `Cc1cc2cc(Oc3cnc4nc(Nc5cc(C(F)(F)F)cn(C)c5=O)n(C)c4c3Cl)cnc2[nH]1` [Example I-293, 3-((7-chloro-1-methyl-6-((2-methyl-1H-pyrrolo[2,3-b]pyridin-5-yl)oxy)-1H-imidazo[4,5-b]pyridin-2-yl)amino)-1-methyl-5-(trifluoromethyl)pyridin-2(1H)-one], 7.30 to 8.00. On to `COc1c(Oc2cnn3ccncc23)cnc2nc(Nc3cc(C4CC4)cn([C@@H]4CCCOC4)c3=O)n(C)c12` (single isomer, unassigned) [Example I-72-a], for which the pKd is above 8.00.

In turn, `Cn1c(Nc2cc(C(C)(C)C)n(C3CC4(COC4)C3)n2)nc2ncc(Oc3cnn4ccncc34)c(C(F)F)c21` [Example I-53, N-(5-(tert-butyl)-1-(2-oxaspiro[3.3]heptan-6-yl)-1H-pyrazol-3-yl)-7-(difluoromethyl)-1-methyl-6-(pyrazolo[1,5-a]pyrazin-3-yloxy)-1H-imidazo[4,5-b]pyridin-2-amine] gave a pKd above 8.00. Compound `CNc1nccn2ncc(Oc3cnc4nc(Nc5cc(C(F)(F)F)cn(-c6cccnc6)c5=O)n(C)c4c3Cl)c12` [Example I-179, 3-((7-chloro-1-methyl-6-((4-(methylamino)pyrazolo[1,5-a]pyrazin-3-yl)oxy)-1H-imidazo[4,5-b]pyridin-2-yl)amino)-5-(trifluoromethyl)-2H-[1,3′-bipyridin]-2-one] gave a pKd above 8.00. Regarding `Cc1nc(Nc2nc3ncc(Oc4cnn5ccncc45)c(Cl)c3n2C)nc(C)c1N1CCCC1` [Example I-287, 7-chloro-N-(4,6-dimethyl-5-(pyrrolidin-1-yl)pyrimidin-2-yl)-1-methyl-6-(pyrazolo[1,5-a]pyrazin-3-yloxy)-1H-imidazo[4,5-b]pyridin-2-amine], the pKd is 7.30 to 8.00. The compound `CNc1nccn2ncc(Oc3cnc4nc(Nc5cc(OC6CCN(C)CC6)cc(C(F)(F)F)c5)n(C)c4c3Cl)c12` [Example I-227, 7-chloro-1-methyl-6-((4-(methylamino)pyrazolo[1,5-a]pyrazin-3-yl)oxy)-N-(3-((1-methylpiperidin-4-yl)oxy)-5-(trifluoromethyl)phenyl)-1H-imidazo[4,5-b]pyridin-2-amine] gave a negative-log Kd (pKd) of 7.30 to 8.00. `Cn1c(Nc2cc(C(C)(C)C#N)n([C@H]3CCOC3)n2)nc2ncc(Oc3cnc4ccnn4c3)c(Cl)c21` [Example I-17, (S)-2-(3-((7-chloro-1-methyl-6-(pyrazolo[1,5-a]pyrimidin-6-yloxy)-1H-imidazo[4,5-b]pyridin-2-yl)amino)-1-(tetrahydrofuran-3-yl)-1H-pyrazol-5-yl)-2-methylpropanenitrile] gave a negative logarithm of the Kd (pKd) of 7.30 to 8.00. `Cn1c(Nc2cc(C(C)(C)C)n(C3COCC3O)n2)nc2ncc(Oc3cnn4ccncc34)c(Cl)c21` (single isomer, unassigned) [Example I-48] had a pKd above 8.00. `CNc1cn2ncc(Oc3cnc4nc(Nc5cc(CN6CC[C@H](OC)C6)cc(C(F)(F)F)c5)n(C)c4c3Cl)c2cn1` [Example I-307, (S)-7-chloro-N-(3-((3-methoxypyrrolidin-1-yl)methyl)-5-(trifluoromethyl)phenyl)-1-methyl-6-((6-(methylamino)pyrazolo[1,5-a]pyrazin-3-yl)oxy)-1H-imidazo[4,5-b]pyridin-2-amine] gave a pKd of 6.00 to 7.30. Compound `CC(=O)N1CC2(CC(n3nc(Nc4nc5ncc(Oc6cnn7ccccc67)c(Cl)c5n4C)cc3C(F)(F)F)C2)C1` [Example I-278, 1-(6-(3-((7-chloro-1-methyl-6-(pyrazolo[1,5-a]pyridin-3-yloxy)-1H-imidazo[4,5-b]pyridin-2-yl)amino)-5-(trifluoromethyl)-1H-pyrazol-1-yl)-2-azaspiro[3.3]heptan-2-yl)ethan-1-one] had a pKd above 8.00. With `Cn1c(Nc2cc(C(F)(F)F)cn([C@H]3C[C@H](O)C3)c2=O)nc2ncc(Oc3cnn4cccc(F)c34)c(Cl)c21` [Example I-295, trans-3-((7-chloro-6-((4-fluoropyrazolo[1,5-a]pyridin-3-yl)oxy)-1-methyl-1H-imidazo[4,5-b]pyridin-2-yl)amino)-1-(3-hydroxycyclobutyl)-5-(trifluoromethyl)pyridin-2(1H)-one], the pKd is 7.30 to 8.00.

Usually pKd stands for −log10 of the Kd, conventionally taken in molar units.
